Reference: US5077312A, “Biologically active lipids binding membrane receptors” (priority 1990, dated 1991)
“And” between values parts separate entries of the source, which are not always exact repeats. Equal values may be shown once.

How the values were obtained:
[1] = system: PDBu receptor (phorboid receptor) of murine brain membranous fraction (BMF); assay: PDBu binding inhibiting activity (PBIA): inhibition of 3H-PDBu binding to murine brain membranous fraction; design: species or system murine (mouse, NFS strain)
Description: Pooled murine brains from approximately 2 month old mice, NFS strain, were minced with scissors, suspended in 1 mM triethanolamine-HCl, pH 7.4, and disrupted with a polytron P-10 (Brinkman). This and all subsequent steps were performed at 4° C. The homogenate was centrifuged for 10 minutes at 1700 xg; the supernate was removed and centrifuged for 60 minutes at 105,000 xg. The resulting pellet was suspended in one-fourth of the initial volume of PBS. The suspension was aliquoted into a small volume and stored at -70° C.
The binding of ^3 H-PDBu to BMF or soluble receptors was performed in duplicate in 12×75 mm disposable glass tubes (Kimax) both in the absence and presence of 20 μg/ml unlabeled PDBu; the binding mixture contained 5 ng of ^3 H-PDBu (4×10^4 cpm), 0.2% final concentration of DMSO and BMF (50 μg protein) or soluble receptors in a total volume of 0.25 ml binding buffer (BB) consisting of Dulbecco's minimum essential medium (DMEM) containing bovine serum albumin (BSA 1 mg/ml) and N,N,-bis-(2-hydroxyethyl)-2-amino-ethane sulfonic acid (BES, 5 mM), adjusted to pH 6.8. After incubation for 30 minutes at 23° C. the tubes were chilled, 0.5 ml cold 4% calf serum (Colorado Serum Co., Denver, Colo.) and 0.7 ml cold polyethylene glycol (PEG 6,000) in 1 mM Tris-HCl, pH 7.4 was added to each tube, the contents vortexed, the tubes allowed to stand for 15 min at 4° C., and centrifuged for 10 in at 1500 xg at 4° C. The supernatant solution was carefully aspirated off, the pellet suspended in 2.5 ml of cold 10% PEG in 0.1M Tris-HCl, pH 7.4, containing 0.5% SDS and 1 mM EDTA). The mixture was transferred to counting vials and 10 ml of Aquassure (NEN) was added to each vial. The vials were vigorously shaken and radioactivity determined using a Beckman beta counter. The radioactivity bound in the presence of 20 μg/ml (50-200 cpm) unlabeled PDBu was considered to be nonspecific and all data were corrected accordingly.
The loss of the ability of ^3 H-PDBu to bind to receptors in the presence of ligand was used as the measure of inhibiting activity. PDBu binding inhibition assays were performed as described above, except the test materials were added to the reaction mixture and binding measured as described above.
The PBIA of ligand was equated with that of PDBu by the use of the term ng equivalent calculated from a plot of [^3 H]PDBu bound versus the log molar concentration for several biologically active phorbol esters (2). The curve corresponding to PDBu inhibition of PDBu binding was used by reading the molar concentration corresponding to the percent of control binding of [^3 H]PDBu in the presence of ligand to obtain the units ng PDBu equivalent of ligand.

arachidonic acid cascade = assay: Stimulation of arachidonic acid cascade: release of radioactivity from cells labeled with radioactive arachidonic acid; assay type: cell-based
From the text: (§1) The release of radioactivity into the medium from cells previously labeled with radioactive arachidonic acid was used as a measure of activation of eicosanoids pathway. […] PBIL from all sources inhibited PDBu-receptor interaction.

[2] = system: arachidonic acid cascade in mink lung cells; assay: Activation of arachidonic acid cascade in mink lung cells; assay type: cell-based
From the text: as §1

[3] = system: purified phorboid receptor (serine-protein kinase); assay: Protein kinase activity of purified phorboid receptor; assay type: biochemical, murine
Description: In the final volume of 0.25 ml, the reaction mixture in duplicate contained 5 μmol Tris-HCl (pH 7.4), 1 μmol MgCl2, 50 μg histone, 0.12 nmol [-^32 P] ATP (8×10^6 cpm at arrival) and an appropriate amount of purified receptor protein. The reaction was carried out for 15 min at 23° C. The phosphorylated proteins were precipitated with 5% cold TCA, using BSA (250 μg) as carrier. The mixture in the tubes was allowed to settle at 4° C. for 15-30 min. Precipitates were collected on cellulose nitrate filters (0.45 μm) and washed with 75 ml of cold 5% TCA. Filters were dried and counted in Betafluor scintillation fluid.
Purified phorboid receptor from murine brain was purified to homogeneity and shown that the purified receptor is a serine-protein kinase (Shoyab, Cell Proliferation (CSH Laboratory) (1984) 11:253-262). The effect of PBIL on this protein kinase was tested. […] At higher concentration the kinase activity was inhibited (Table 4).
The assay conditions were the same as described in the text except the indicated amount of PBIL and 25 ng of purified receptor protein (Shoyab, Cell Proliferation (CSH Laboratory) (1984) 11:253-262) were used.

[4] = concentration 0.8 (unit not given)
[5] = concentration 0.4 (unit not given)
[6] = concentration 0.2 (unit not given)

| SMILES | Inhibition of binding of PDBu to its receptor [1, 4] | Inhibition of binding of PDBu to its receptor [1, 5] [%] | other results |
| --- | --- | --- | --- |
| CCCCCCCC/C=C\CCCCCCCC(=O)OCC(CO)OC(=O)CCCCCCC/C=C\CCCCCCCC (stereo not drawn) [1,2-Diolein, reference compound] | 20% |  |  |
| CCCCC/C=C\C/C=C\CCCCCCCC(=O)OCC(O)COC(=O)CCCCCCC/C=C\C/C=C\CCCCC [1,3-Dilinolein, reference compound] | 15% |  |  |
| CCCCCCCCCCCCCC(=O)OCC(O)COC(=O)CCCCCCCCCCCCC [1,3-Dimyristin, reference compound] |  | 1 |  |
| CCCCCCCC/C=C\CCCCCCCC(=O)OCC(O)COC(=O)CCCCCCC/C=C\CCCCCCCC [1,3-Diolein, reference compound] | 11% |  |  |
| CCCCCCCCCCCCCCCC(=O)OCC(O)COC(=O)CCCCCCCCCCCCCCC [1,3-Dipalmitin, reference compound] | -12% |  |  |
| CCCCC/C=C\C/C=C\C/C=C\C/C=C\CCCC(=O)OCC(O)CO (stereo not drawn) [1-Monoarachidonin, 1-monoarachidonin] | 95% | 91 | Inhibition of / competition for PDBu binding to receptor (in words) [1]: compete with phorbol dibutyrate for its receptor; Inhibition of binding of PDBu to its receptor [1, 6]: 41%; Stimulation of arachidonic acid cascade (release of radioactivity into the medium) (arachidonic acid cascade): stimulate the arachidonic acid cascade |
| CCCCC/C=C\C/C=C\CCCCCCCC(=O)OC[C@@H](O)CO [1-Monolinolein, 1-monolinolein] | 94% | 82 | Inhibition of / competition for PDBu binding to receptor (in words) [1]: compete with phorbol dibutyrate for its receptor; Inhibition of binding of PDBu to its receptor [1, 6]: 39%; Stimulation of arachidonic acid cascade (release of radioactivity into the medium) (arachidonic acid cascade): stimulate the arachidonic acid cascade; Activation of arachidonic acid cascade [2]: activated the arachidonic acid cascade in mink lung cells in a dose- and time-dependent manner |
| CC/C=C\C/C=C\C/C=C\CCCCCCCC(=O)OCC(O)CO (stereo not drawn) [1-Monolinolenin, 1-monolinolenin] | 94% | 74 | Inhibition of binding of PDBu to its receptor [1, 6]: 27% |
| CCCCCCCCCCCCCC(=O)OCC(O)CO (stereo not drawn) [1-Monomyristin, reference compound] |  | 0 |  |
| CCCCCCCC/C=C\CCCCCCCC(=O)OCC(O)CO (stereo not drawn) [1-Monoolein, 1-monoolein] | 63% | 21 |  |
| CCCCCCCCCCCCCCCC(=O)OCC(O)CO (stereo not drawn) [1-Monopalmitin, 1-monopalmitin] | -6% and -15% |  |  |
| CCCCCC/C=C\CCCCCCCC(=O)OCC(O)CO (stereo not drawn) [1-Monopalmitolein, 1-monopalmitolein] | 82% | 36 | Inhibition of / competition for PDBu binding to receptor (in words) [1]: compete with phorbol dibutyrate for its receptor; Stimulation of arachidonic acid cascade (release of radioactivity into the medium) (arachidonic acid cascade): stimulate the arachidonic acid cascade |
| OCC(O)CO [Glycerol, reference compound] |  | 0 |  |
| CCCCC/C=C\C/C=C\CCCCCCCC(=O)O [Linoleic acid-Na, reference compound] | 15% | 10 |  |
| CCCCCCCCCCCCCC(=O)O[C@@H]1[C@@H](C)[C@@]2(O)[C@@H](C=C(CO)C[C@]3(O)C(=O)C(C)=C[C@@H]23)[C@@H]2C(C)(C)[C@]12OC(C)=O [TPA, 12-0-tetradecanoylphorbol-13-acetate] |  |  | Stimulation of protein kinase activity (in words) [3]: stimulated the kinase activity |
| CCCCCCCCCCCC(=O)OCC(COC(=O)CCCCCCCCCCC)OC(=O)CCCCCCCCCCC [Trilaurin, reference compound] |  | 11 |  |
| CCCCC/C=C\C/C=C\CCCCCCCC(=O)OCC(COC(=O)CCCCCCC/C=C\C/C=C\CCCCC)OC(=O)CCCCCCC/C=C\C/C=C\CCCCC [Trilinolein, reference compound] | -1% |  |  |
| CCCCCCCCCCCCCC(=O)OCC(COC(=O)CCCCCCCCCCCCC)OC(=O)CCCCCCCCCCCCC [Trimystrin, reference compound] |  | 15 |  |
| CCCCCCCCCCCCCCCC(=O)OCC(COC(=O)CCCCCCCCCCCCCCC)OC(=O)CCCCCCCCCCCCCCC [Tripalmitin, reference compound] | -8% | -11 |  |
